Starred links: 1 amine or outer side, 2 acyl side, 3 side chain; linkers in the order of their positions; H or OH if unused. Non-standard residues stand in square brackets, D forms with d. Residues, ends and D or L forms follow the SMILES beside them. *: point of attachment. Dolaproine = CO[C@@H]([C@@H]1CCCN1)[C@@H](C)C(=O)O; Hexanoyl(6-maleimido) = O=C1C=CC(=O)N1CCCCCC(=O)*; Dil = CC[C@H](C)[C@H](NC)[C@@H](CC(=O)O)OC; PABC = O=C(OCc1ccc(N[*:1])cc1)[*:2]; X1 = C[C@@H](N*)[C@@H](O)c1ccccc1; Cit = NC(=O)NCCC[C@H](N)C(=O)O; NMeV = CN[C@H](C(=O)O)C(C)C
Legend:
[1] = test system: RAW264.7 (RAW) cells; test: MMAE cytotoxicity / cell growth on RAW264.7 cells (IncuCyte); format: cell-based, mouse
Procedure: The dose-response effects of MMAE on RAW cell growth are shown in microphotographs (top), and measurements of cells growth (bottom left), and confluence (bottom right).
MMAE cytotoxicity was assessed on RAW264.7 (RAW) cells. RAW cells are a […] macrophage cell line. 10,000 RAW cells were seeded in each well of a 96 well plate, and cell growth was monitored using an IncuCyte instrument to image cells over a period of approximately 5 days. […] Images show cells after 5 days of treatment with the indicated dose of MMAE or DMSO; growth inhibition is evident from the decreased number of cells after treatment with MMAE, while cell death is indicated by the rounding up of cells (evident in the 10, 100, and 300 nM images). MMAE has a steep dose-response curve.

[2] = test system: NLRC4 inflammasome; details: cited from earlier work
[3] = test system: AIM2 inflammasome; details: cited from earlier work
[4] = test system: NLRP1 inflammasome; details: cited from earlier work
[5] = test system: TLR2 signaling; details: cited from earlier work
[6] = molecular target: NLRP3 (Sus scrofa, UniProt H2EW08); details: models for myocardial infarction; cited from earlier work
NLRP3, sequence (H2EW08 1-1036): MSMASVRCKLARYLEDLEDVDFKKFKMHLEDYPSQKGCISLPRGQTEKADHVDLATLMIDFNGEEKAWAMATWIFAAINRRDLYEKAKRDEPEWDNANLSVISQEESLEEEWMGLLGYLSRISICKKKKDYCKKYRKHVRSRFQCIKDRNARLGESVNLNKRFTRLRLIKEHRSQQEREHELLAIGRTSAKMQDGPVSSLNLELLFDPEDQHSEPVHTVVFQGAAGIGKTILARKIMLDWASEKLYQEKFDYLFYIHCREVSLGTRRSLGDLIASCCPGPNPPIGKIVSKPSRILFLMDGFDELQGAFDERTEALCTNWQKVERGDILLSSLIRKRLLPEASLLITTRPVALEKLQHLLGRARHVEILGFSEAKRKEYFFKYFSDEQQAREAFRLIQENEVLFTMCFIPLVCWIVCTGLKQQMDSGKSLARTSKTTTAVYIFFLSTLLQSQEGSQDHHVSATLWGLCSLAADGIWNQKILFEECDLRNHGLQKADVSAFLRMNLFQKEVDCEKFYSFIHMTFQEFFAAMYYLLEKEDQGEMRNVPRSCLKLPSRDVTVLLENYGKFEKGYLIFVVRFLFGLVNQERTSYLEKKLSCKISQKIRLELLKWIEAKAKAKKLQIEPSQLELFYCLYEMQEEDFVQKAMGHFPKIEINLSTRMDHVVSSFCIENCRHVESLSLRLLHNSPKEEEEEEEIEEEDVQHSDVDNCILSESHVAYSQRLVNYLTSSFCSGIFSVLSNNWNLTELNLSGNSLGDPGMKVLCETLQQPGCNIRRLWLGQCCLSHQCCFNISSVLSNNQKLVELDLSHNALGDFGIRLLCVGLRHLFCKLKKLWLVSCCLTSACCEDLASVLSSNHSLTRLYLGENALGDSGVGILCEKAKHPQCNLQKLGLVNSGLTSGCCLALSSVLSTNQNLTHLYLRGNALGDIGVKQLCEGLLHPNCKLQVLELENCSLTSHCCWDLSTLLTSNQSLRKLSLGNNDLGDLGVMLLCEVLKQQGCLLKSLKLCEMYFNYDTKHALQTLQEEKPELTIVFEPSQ

[7] = Phase 2 study (Palmer 2018); cited from earlier work
[8] = molecular target: mouse LPA-1 (Mus musculus, UniProt P61793); details: cited from earlier work
mouse LPA-1, sequence (P61793 whole entry): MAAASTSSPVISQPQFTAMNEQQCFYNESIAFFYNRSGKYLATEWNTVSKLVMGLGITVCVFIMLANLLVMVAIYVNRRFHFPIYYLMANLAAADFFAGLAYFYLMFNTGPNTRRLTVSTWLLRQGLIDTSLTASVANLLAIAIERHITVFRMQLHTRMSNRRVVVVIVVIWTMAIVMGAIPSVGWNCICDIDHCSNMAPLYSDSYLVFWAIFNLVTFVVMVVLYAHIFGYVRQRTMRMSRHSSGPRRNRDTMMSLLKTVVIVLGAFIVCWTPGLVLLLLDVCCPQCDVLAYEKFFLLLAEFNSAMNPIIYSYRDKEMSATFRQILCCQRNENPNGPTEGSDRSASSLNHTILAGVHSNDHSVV

[9] = molecular target: recombinant human LPA-1 (Homo sapiens, UniProt Q92633); details: cited from earlier work
recombinant human LPA-1, sequence (Q92633 whole entry): as the sequence (P61793 whole entry) above, with A4I, S8I, Q22P, Y40H, V61I, D193E, H194N, V269I, N331S, N335T counted along it

[10] = test system: mouse LPA-1/CHO cells; details: read-out: IC50, inhibition of LPA-1-induced chemotaxis; cited from earlier work
[11] = test system: human A2058 melanoma cells; details: read-out: IC50, inhibition of LPA-1-induced chemotaxis; cited from earlier work
[12] = test system: LPA-induced histamine release; details: mice; cited from earlier work
[13] = cited from earlier work

CC[C@H](C)[C@@H]([C@@H](CC(=O)N1CCC[C@H]1[C@H](OC)[C@@H](C)C(=O)N[C@H](C)[C@@H](O)c1ccccc1)OC)N(C)C(=O)[C@@H](NC(=O)[C@@H](NC)C(C)C)C(C)C [MMAE, monomethyl auristatin E] (H-[NMeV]V[Dil][Dolaproine]-X1)
MMAE concentrations giving potent growth inhibition and cell death ([1]; free drug, about 5 days, FIG. 7): above 1.1 nM

CC(C)(O)c1coc(S(=O)(=O)NC(=O)Nc2c3c(cc4c2CCC4)CCC3)c1 [MCC950, N-[[(1,2,3,5,6,7-hexahydro-s-indacen-4-yl)amino]carbonyl]-4-(1-hydroxy-1-methylethyl)-2-furansulfonamide]
inhibition of NLRC4 inflammasome [2]: does not inhibit | inhibition of AIM2 inflammasome [3]: does not inhibit | inhibition of NLRP1 inflammasome [4]: does not inhibit | inhibition of TLR2 signaling [5]: does not inhibit | NLRP3-induced IL-1β production [6]: inhibits NLRP3-induced IL-1β production

CC[C@H](C)[C@@H]([C@@H](CC(=O)N1CCC[C@H]1[C@H](OC)[C@@H](C)C(=O)N[C@H](C)[C@@H](O)c1ccccc1)OC)N(C)C(=O)[C@@H](NC(=O)[C@H](C(C)C)N(C)C(=O)OCc1ccc(NC(=O)[C@H](CCCNC(N)=O)NC(=O)[C@@H](NC(=O)CCCCCN2C(=O)C=CC2=O)C(C)C)cc1)C(C)C [vc-MMAE, maleimide-vc-PABC-MMAE] ({Hexanoyl(6-maleimido)}-V[Cit][PABC][NMeV]V[Dil][Dolaproine]-X1)
fold less toxic than unmodified MMAE ([1]; administered to cells as a free drug, FIG. 8A): approximately 100 fold

Cc1noc(-c2ccc(-c3ccc(C4(C(=O)O)CC4)cc3)cc2)c1NC(=O)O[C@H](C)c1ccccc1 [AM152, Cyclopropanecarboxylic acid, 1-[4′-[3-methyl-4-[[[(1R)-1-phenylethoxy]carbonyl]amino]-S-isoxazolyl][1,1′-biphenyl]-4-yl]-]
toxicity leading to early termination of the study [7]: gall bladder toxicity and early signs of liver toxicity

Cc1noc(-c2ccc(-c3ccc(CC(=O)O)cc3)cc2)c1NC(=O)O[C@H](C)c1ccccc1 [AM095, 1,1′-Biphenyl]-4-acetic acid, 4′-[3-methyl-4-[[[(1R)-1-phenylethoxy]carbonyl]amino]-S-isoxazolyl[ ]-]
IC50 [8]: 730 nM | IC50 [9]: 980 nM | IC50 [10]: 780 nM | IC50 [11]: 230 nM | ED50, block of LPA-induced histamine release [12]: 8.3 mg/kg | ED50, reduction of BALF collagen and protein ([13]; in lungs): 10 mg/kg | macrophage and lymphocyte infiltration induced by bleomycin ([13]; mice): decrease both macrophage and lymphocyte infiltration

Reference: patent US20240108747A1, “EXTRACELLULAR VESICLE CONJUGATES AND USES THEREOF” (LONZA SALES AG, priority 2019, published 2024)
